For 15 compounds, T/C results are on record in PubChem BioAssay AID248 (DTP/NCI, 2004).

The test system of the assay is L1210 leukemia ip in BDF1 mice, survival T/C. As to the kind of experiment: NCI In Vivo Anticancer Drug Screen. Data for tumor model L1210 Leukemia (intraperitoneal) in B6D2F1 (BDF1) mice. To be noted: endpoint: mean survival time, higher = longer survival. Summed up:
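Value reflects the ratio of survival in compound-treated mice to survival in vehicle-treated controls, with both groups carrying the same transplanted tumor.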

[1] abbreviates: dose: 100.0 mg/kg/injection, schedule: Q04DX003 (ip), vehicle: saline.
Setting [2] is: dose: 200.0 mg/kg/injection, schedule: Q04DX003 (ip), vehicle: saline.
The mark [3] stands for this setting: dose: 400.0 mg/kg/injection, schedule: Q04DX003 (ip), vehicle: saline.
[4] abbreviates: dose: 100.0 mg/kg/injection, schedule: Q04DX002 (ip), vehicle: Klucel (hydroxypropylcellulose) (HPC).
Where [5] appears, read: dose: 200.0 mg/kg/injection, schedule: Q04DX002 (ip), vehicle: Klucel (hydroxypropylcellulose) (HPC).
Where [6] appears, read: dose: 400.0 mg/kg/injection, schedule: Q04DX002 (ip), vehicle: Klucel (hydroxypropylcellulose) (HPC).
Where [7] appears, read: dose: 25.0 mg/kg/injection, schedule: Q04DX002 (ip), vehicle: saline.
Setting [8] is: dose: 50.0 mg/kg/injection, schedule: Q04DX002 (ip), vehicle: saline.
Where [9] appears, read: dose: 100.0 mg/kg/injection, schedule: Q04DX002 (ip), vehicle: saline.
The mark [10] stands for this setting: dose: 100.0 mg/kg/injection, schedule: Q01DX001 (ip), vehicle: saline.

Several values for one entry are separate records, joined by “and”; a condition that tells them apart may be missing. Equal entries are not always repeated. Toxic doses and inconclusive results are not listed.

As for `O=C(O)C(CSC(c1ccccc1)(c1ccccc1)c1ccccc1)N=Cc1cccs1` (stereo not given), the T/C (dose: 22.0 mg/kg/injection, schedule: Q01DX009 (ip), vehicle: saline) is 123 % of control; the T/C (dose: 66.0 mg/kg/injection, schedule: Q01DX009 (ip), vehicle: saline with Tween-80) is 109 % of control; the T/C (dose: 66.0 mg/kg/injection, schedule: Q01DX009 (ip), vehicle: saline) was 152 % of control and 214 % of control; the T/C (dose: 150.0 mg/kg/injection, schedule: Q01DX009 (ip), vehicle: saline with Tween-80) was 98 % of control; the T/C (dose: 150.0 mg/kg/injection, schedule: Q01DX009 (ip), vehicle: saline) was 104 % of control.
Consider `CSc1nnc(-c2ccc(OCCOc3ccc(C(C)(C)CC(C)(C)C)cc3)cc2)s1`, for which the T/C reads like this: (dose: 100.0 mg/kg/injection, schedule: Q04DX003 (ip), vehicle: saline with Tween-80) 89 % of control; (dose: 200.0 mg/kg/injection, schedule: Q04DX003 (ip), vehicle: saline with Tween-80) 94 % of control; (dose: 400.0 mg/kg/injection, schedule: Q04DX003 (ip), vehicle: saline with Tween-80) 91 % of control.
Consider `Nc1c(S(=O)(=O)O)cc(Br)c2c1C(=O)c1ccccc1C2=O`, for which the T/C by setting is: (dose: 100.0 mg/kg/injection, schedule: Q01DX009 (ip), vehicle: saline) 92 % of control; under setting [1], 96 % of control; (dose: 200.0 mg/kg/injection, schedule: Q01DX009 (ip), vehicle: saline) 95 % of control; under setting [2], 93 % of control; (dose: 400.0 mg/kg/injection, schedule: Q01DX009 (ip), vehicle: saline) 101 % of control; under setting [3], 95 % of control.
Take `O=C1c2ccccc2C(=O)C2CC(c3ccccc3)=C(c3ccccc3)CC12` (stereo not given): the T/C is 96 % of control under setting [4], 96 % of control under setting [5] and 100 % of control under setting [6].
Take `NC(CSS(=O)(=O)O)=NCCC1=NCCN1`: the T/C is, setting by setting: under setting [7], 101 % of control; under setting [8], 101 % of control; under setting [9], 101 % of control; (dose: 200.0 mg/kg/injection, schedule: Q04DX002 (ip), vehicle: saline) 96 % of control and 107 % of control; (dose: 400.0 mg/kg/injection, schedule: Q04DX002 (ip), vehicle: saline) 115 % of control.
As to `ClC1(Cl)C2(c3ccccc3)OC(c3ccccc3)(c3ccccc32)C1(Cl)Cl`, the T/C runs as follows: under setting [4], 97 % of control; under setting [5], 97 % of control; under setting [6], 102 % of control.
In the case of `CCOC=Nc1c(/C=C(/O)C(=O)OCC)c[n+]([O-])nc1OC`, the T/C reads like this: (dose: 25.0 mg/kg/injection, schedule: Q04DX002 (ip), vehicle: saline with Tween-80) 92 % of control; under setting [7], 92 % of control; (dose: 50.0 mg/kg/injection, schedule: Q04DX002 (ip), vehicle: saline with Tween-80) 96 % of control; under setting [8], 96 % of control; (dose: 100.0 mg/kg/injection, schedule: Q04DX002 (ip), vehicle: saline with Tween-80) 89 % of control; under setting [9], 96 % of control.
`O=S(=O)(Nc1ccc(NS(=O)(=O)c2ccccc2)cc1)c1ccccc1`: the T/C was 97 % of control (dose: 100.0 mg/kg/injection, schedule: Q01DX009 (ip), vehicle: saline sonified); 93 % of control (dose: 100.0 mg/kg/injection, schedule: Q04DX003 (ip), vehicle: Klucel (hydroxypropylcellulose) (HPC)); 104 % of control (dose: 200.0 mg/kg/injection, schedule: Q01DX009 (ip), vehicle: saline sonified); 98 % of control (dose: 200.0 mg/kg/injection, schedule: Q04DX003 (ip), vehicle: Klucel (hydroxypropylcellulose) (HPC)); 98 % of control (dose: 400.0 mg/kg/injection, schedule: Q01DX009 (ip), vehicle: saline sonified); 90 % of control (dose: 400.0 mg/kg/injection, schedule: Q04DX003 (ip), vehicle: Klucel (hydroxypropylcellulose) (HPC)).
`Nc1nnnc2c1ncn2C1CCCC1`: the T/C (dose: 75.0 mg/kg/injection, schedule: Q01DX001 (ip), vehicle: other) was 97 % of control.
Turning to `CCOC(=O)C(CCCO)C(=O)OCC`, the T/C (dose: 100.0 mg/kg/injection, schedule: Q01DX001 (ip), vehicle: saline with Tween-80) is 98 % of control; the T/C (dose: 200.0 mg/kg/injection, schedule: Q01DX001 (ip), vehicle: saline with Tween-80) was 96 % of control; the T/C (dose: 400.0 mg/kg/injection, schedule: Q01DX001 (ip), vehicle: saline with Tween-80) is 91 % of control.
With `CC(C)C1CCC2(CC1)CCN(CCCN(C)C)CC2`, the T/C (dose: 50.0 mg/kg/injection, schedule: Q01DX001 (ip), vehicle: saline) was 93 % of control and the T/C under setting [10] is 113 % of control.
Regarding `CNCC(O)c1ccccc1` (stereo not given), the T/C is 96 % of control under setting [10]; 94 % of control under setting [1]; 97 % of control (dose: 200.0 mg/kg/injection, schedule: Q01DX001 (ip), vehicle: saline); 96 % of control under setting [2]; 92 % of control (dose: 400.0 mg/kg/injection, schedule: Q01DX001 (ip), vehicle: saline); 100 % of control under setting [3].
As to `CN1C2CCC1CC(OC(c1ccccc1)c1ccccc1)C2` (stereo not given), the T/C is, setting by setting: (dose: 3.12 mg/kg/injection, schedule: Q01DX009 (ip), vehicle: saline) 95 % of control; (dose: 5.0 mg/kg/injection, schedule: Q01DX009 (ip), vehicle: saline) 92 % of control; (dose: 6.25 mg/kg/injection, schedule: Q01DX009 (ip), vehicle: saline) 97 % of control; (dose: 10.0 mg/kg/injection, schedule: Q01DX009 (ip), vehicle: saline) 103 % of control; (dose: 12.5 mg/kg/injection, schedule: Q01DX009 (ip), vehicle: saline) 103 % of control; (dose: 17.0 mg/kg/injection, schedule: Q01DX009 (ip), vehicle: saline) 95 % of control. In addition, the T/C reads like this: (dose: 20.0 mg/kg/injection, schedule: Q01DX009 (ip), vehicle: saline) 90 % of control; (dose: 25.0 mg/kg/injection, schedule: Q01DX009 (ip), vehicle: saline) 109 % of control; (dose: 55.0 mg/kg/injection, schedule: Q01DX001 (ip), vehicle: saline) 98 % of control.
As for `C[NH-].C[NH-].[Br][Pt+2][Br]`, the T/C by setting is: (dose: 0.62 mg/kg/injection, schedule: Q01DX009 (ip), vehicle: water) 118 % of control and 123 % of control; (dose: 1.5 mg/kg/injection, schedule: Q01DX001 (ip), vehicle: other) 108 % of control; (dose: 1.5 mg/kg/injection, schedule: Q01DX009 (ip), vehicle: other) 115 % of control; (dose: 2.0 mg/kg/injection, schedule: Q01DX009 (ip), vehicle: other) 161 % of control; (dose: 3.0 mg/kg/injection, schedule: Q01DX001 (ip), vehicle: other) 117 % of control; (dose: 3.0 mg/kg/injection, schedule: Q01DX005 (ip), vehicle: saline with Tween-80) 105 % of control. For the same compound, the T/C is 153 % of control (dose: 3.0 mg/kg/injection, schedule: Q01DX009 (ip), vehicle: other); 95 % of control (dose: 4.5 mg/kg/injection, schedule: Q01DX009 (ip), vehicle: other); 98 % of control (dose: 5.0 mg/kg/injection, schedule: Q01DX009 (ip), vehicle: water); 117 % of control (dose: 6.0 mg/kg/injection, schedule: Q01DX001 (ip), vehicle: other); 98 % of control (dose: 6.0 mg/kg/injection, schedule: Q01DX009 (ip), vehicle: other); 115 % of control (dose: 10.0 mg/kg/injection, schedule: Q01DX009 (ip), vehicle: water). For the same compound, the T/C is 124 % of control (dose: 25.0 mg/kg/injection, schedule: Q01DX001 (ip), vehicle: other) and 95 % of control (dose: 50.0 mg/kg/injection, schedule: Q01DX001 (ip), vehicle: other).
Take `COC(=O)c1ccc(N(C)CCC(C)=O)cc1`: the T/C runs as follows: (dose: 100.0 mg/kg/injection, schedule: Q01DX001 (ip), vehicle: other) 97 % of control; (dose: 200.0 mg/kg/injection, schedule: Q01DX001 (ip), vehicle: other) 95 % of control; (dose: 400.0 mg/kg/injection, schedule: Q01DX001 (ip), vehicle: other) 106 % of control.
